Results on 6 compounds are retold here after US10202347B2, “Compound, production method therefor, and use of said compound” (MICROBIAL CHEMISTRY RESEARCH FOUNDATION, priority 2013, dated 2019).

Data set [1] deals with Staphylococcus aureus FDA209P strain. The data set can be described thus: Measurement of MIC for Staphylococcus aureus. To be noted: nutrient broth medium, 37° C. overnight, read-out: MIC Staphylococcus aureus FDA209P. The format is cell-based. On the procedure:
(§1) Each of the above compounds was measured for minimum inhibitory concentration (MIC) for Staphylococcus aureus and Escherichia coli.
(§2) Staphylococcus aureus FDA209P strain and Escherichia coli K-12 strain each were cultured under shaking in a nutrient broth medium (polypeptone (product of NIHON PHARMACEUTICAL Co.) 1%, fish extract for bacteria (product of KYOKUTO PHARMACEUTICAL INDUSTRIAL Co.) 1%, and sodium chloride 0.2%) at 37° C. overnight.
(§3) After completion of the culturing, the culture was diluted with the nutrient broth medium so that the bacteria were 2×10^6 CFU/mL to 9×10^6 CFU/mL.
(§4) Each of the test samples (each of the above compounds, clarithromycin, and ampicillin) was prepared with the nutrient broth medium to have a concentration of 256 mg/L. From this concentration, the test sample was 2-fold diluted serially in 11 steps to 0.125 mg/L.
(§5) The above-diluted culture was added at 50 μL/well to 50 μL/well of the nutrient broth medium containing each of the test samples at the above concentrations, and was statically cultured at 37° C. overnight. After completion of the culturing, the presence or absence of proliferation of each bacterium was visually determined based on turbidity, and the MIC for each bacterial strain was obtained.

For data set [2], the system named is H. pylori JCM12095 strain. The data set can be described thus: Measurement of MIC for H. pylori JCM12095. The format is cell-based. Particulars: Helicobacter pylori, JCM12095; HP medium, 144 hours, 37° C., microaerobic; read-out: MIC H. pylori JCM 12095. As to the method:
(§6) Each of the above compounds was measured for minimum inhibitory concentration (MIC) for Helicobacter pylori.
(§7) Helicobacter pylori JCM12093 strain and H. pylori JCM12095 strain each were statically cultured in a HP medium (brain heart infusion broth (product of Becton, Dickinson Co.) supplemented with 10% fetal bovine serum (product of Life Technologies Co.)) for 144 hours at 37° C. under microaerobic culture conditions (microaerobic conditions (N2:O2:CO2=85:5:10)).
(§8) After completion of the culturing, the culture was suspended with the HP medium and diluted so that Helicobacter pylori was 2×10^6 CFU/mL to 9×10^6 CFU/mL.
(§9) Each of the test samples (each of the above compounds, clarithromycin, and ampicillin) was prepared with the HP medium to have a concentration of 256 mg/L. From this concentration, the test sample was 2-fold diluted serially in 15 steps to 0.0078 mg/L.
(§10) The above-diluted culture was added at 50 μL/well to 50 μL/well of the HP medium containing each of the test samples at the above concentrations, and was statically cultured for 144 hours at 37° C. under microaerobic culture conditions (microaerobic conditions (N2:O2:CO2=85:5:10)). After completion of the culturing, the presence or absence of proliferation of each bacterium was visually determined based on turbidity, and the MIC for each bacterial strain was obtained.

Data set [3] has as its system Enterococcus faecalis JCM5803 strain. The data set can be described thus: Measurement of MIC for Enterococcus faecalis. In kind it is cell-based. Particulars: JCM5803, heart infusion broth medium, 37° C., 18 hours, read-out: MIC Enterococcus faecalis JCM5803. On the procedure:
Each of the above compounds was measured for minimum inhibitory concentration (MIC) for Enterococcus faecalis.
Enterococcus faecalis JCM5803 strain was cultured under shaking in a heart infusion broth medium (product of Becton, Dickinson Co.) at 37° C. overnight.
After completion of the culturing, the culture was diluted with the heart infusion broth medium so that the bacteria were 2×10^4 CFU/mL to 9×10^4 CFU/mL.
Each of the test samples (each of the above compounds, clarithromycin, and ampicillin) was prepared with the heart infusion broth medium to have a concentration of 256 mg/L. From this concentration, the test sample was 2-fold diluted serially in 11 steps to 0.125 mg/L.
The above-diluted culture was added at 50 μL/well to 50 μL/well of the heart infusion broth medium containing each of the test samples at the above concentrations, and was statically cultured at 37° C. for 18 hours.
(§11) After completion of the culturing, the presence or absence of proliferation of each bacterium was visually determined based on turbidity, and the MIC for each bacterial strain was obtained.

Data set [4] concerns Haemophilus influenza T-196 strain. The data set can be described thus: Measurement of MIC for Haemophilus influenza T-196. To be noted: HI medium, 18 hours, 37° C., 5% carbon dioxide; read-out: MIC Haemophilus influenzae T-196. In kind it is cell-based. On the procedure: (§12) Each of the above compounds was measured for minimum inhibitory concentration (MIC) for Haemophilus influenza.
(§13) Haemophilus influenza T-196 strain and H. influenza ARD476 strain each were statically cultured in a HI medium (Muller Hinton medium (product of Becton, Dickinson Co.) supplemented with 5% Fildes enrichment (product of Becton, Dickinson Co.)) at 37° C. overnight under aerobic conditions containing 5% carbon dioxide gas.
(§14) After completion of the culturing, the culture was suspended with the HI medium and diluted so that each Haemophilus influenza strain was 2×10^6 CFU/mL to 9×10^6 CFU/mL.
(§15) Each of the test samples (each of the above compounds, clarithromycin, and ampicillin) was prepared with the HI medium to have a concentration of 256 mg/L. From this concentration, the test sample was 2-fold diluted serially in 11 steps to 0.125 mg/L.
(§16) The above-diluted culture was added at 50 μL/well to 50 μL/well of the HI medium containing each of the test samples at the above concentrations, and was statically cultured for 18 hours at 37° C. under aerobic conditions containing 5% carbon dioxide gas.
as §11

Data set [5] has as its system H. influenza ARD476 strain. The data set can be described thus: Measurement of MIC for H. influenza ARD476. In kind it is cell-based. To be noted: Haemophilus influenzae, ARD476STRAIN; HI medium, 18 hours, 37° C., 5% carbon dioxide; read-out: MIC H. influenzae ARD476. On the procedure: as §12, §13, §14, §15, §16, §11
Data set [6] relates to Helicobacter pylori JCM12093 strain. The data set can be described thus: Measurement of MIC for Helicobacter pylori JCM12093. In kind it is cell-based. Particulars: Helicobacter pylori, JCM12093; HP medium, 144 hours, 37° C., microaerobic; read-out: MIC Helicobacter pylori JCM 12093. On the procedure: as §6, §7, §8, §9, §10
The subject of data set [7] is Escherichia coli K-12 strain. The data set can be described thus: Measurement of MIC for Escherichia coli. The format is cell-based. Particulars: K12STRAIN, nutrient broth medium, 37° C. overnight, read-out: MIC Escherichia coli K-12. As to the method:
as §1, §2, §3, §4, §5

The subject of data set [8] is human stomach cancer cells MKN-74. The data set can be described thus: Cell proliferation test, monoculture test (GFP fluorescence). In kind it is cell-based. To be noted: monoculture test, MKN-74 alone, cell proliferation rate, average of duplicate, read-out: Mono IC50. On the procedure: (§17) Human stomach cancer cells MKN-74 (Riken Cell Bank) were cultured at 37° C. and 5% CO2 in DMEM supplemented with 10% FBS (product of GIBCO Co.), 100 units/mL penicillin G (product of Invitrogen Co.), and 100 μg/mL streptomycin (product of Invitrogen Co.).
(§18) The above cancer cells were allowed to undergo gene transfer of Green fluorescence protein (GFP) expression vector, pEGFP-C1 (product of BD Biosciences Co.) using the Lipofectamine reagent (product of Invitrogen Co.), to thereby clone cells stably expressing GFP.
Only DMEM containing 1% dialyzed serum, 5 μg/mL insulin, 5 μg/mL transferrine (product of Wako Pure Chemical Industries Co.), and 1.4 μM hydrocortisone (product of Sigma Co.) was placed in a 96-well plate at 0.1 mL/well, and respective evaluation samples (the compounds expressed by Structural Formulas (1) to (13)) were added thereto at respective concentrations, followed by maintaining at 37° C. and 5% CO2 for 2 days.
Next, the above human stomach cancer cells MKN-74 were dispersed in DMEM at 5×10^5 cells/mL, and were placed in the above plate at 10 μL/well, followed by further coculturing at 37° C. and 5% CO2 for 3 days.
(§19) Measurement of cell proliferation rates in the above coculture test and monoculture test was performed in the following manner.
(§20) The medium was removed from the wells of the above plate, and a cytolysis liquid (10 mM Tris-HCl [pH 7.4], 150 mM NaCl, 0.9 mM CaCl2, and 1% Triton X-100) was added thereto at 0.1 mL/well to lyse the cells. The fluorescence intensity of GFP was measured at an excitation wavelength of 485 nm and a fluorescence wavelength of 538 nm, and the cell proliferation rates were calculated from the following formula. Cell proliferation rate (%)=(Fluorescence intensity in the presence of the evaluation sample/Fluorescence intensity in the absence of the evaluation sample)×100

A short description of data set [9]: Acute toxicity test (maximum tolerated dose). Particulars: female, ICR, mouse, in vivo, iv. From the text: ICR mice (female, 4 weeks old, product of Charles River Co.) were bred under the SPF conditions.
One half of the administration dose at which the mice were recognized to be dead or have serious toxicity for the observation period of 2 weeks was defined as the maximum tolerated dose (MTD) in the present experiment.

Data set [10] deals with human stomach cancer cells MKN-74 cocultured with normal stromal cells derived from the human stomach, Hs738. The data set can be described thus: Cell proliferation test, coculture test with normal stromal cells Hs738 (GFP fluorescence). In kind it is cell-based. To be noted: coculture test, MKN-74 with stromal cells Hs738, cell proliferation rate, average of duplicate, read-out: Cocul IC50. On the procedure: as §17, §18
Normal stromal cells derived from the human stomach, Hs738 ((CRL-7869), ATCC) were cultured at 37° C. and 5% CO2 in DMEM supplemented with 10% FBS, 100 units/mL penicillin G (product of Invitrogen Co.), 100 μg/mL streptomycin (product of Invitrogen Co.), 5 μg/mL insulin, 5 μg/mL transferrin (product of Wako Pure Chemical Industries Co.), 1.4 μM hydrocortisone (product of Sigma Co.), and […] basic-FGF (product of Pepro Tech Co.).
The above normal stromal cells derived from the human stomach, Hs738 were dispersed at 5×10^4 cells/mL in DMEM containing 1% dialyzed serum, 5 μg/mL insulin, 5 μg/mL transferrine (product of Wako Pure Chemical Industries Co.), and 1.4 μM hydrocortisone (product of Sigma Co.), and were placed in a 96-well plate at 0.1 mL/well. Respective evaluation samples (the compounds expressed by Structural Formulas (1) to (13)) were added thereto at respective concentrations, followed by culturing at 37° C. and 5% CO2 for 2 days.
Next, the above human stomach cancer cells MKN-74 were dispersed in DMEM at 5×10^5 cells/mL, and were placed at 10 μL/well in the plate in which the above normal stromal cells derived from the human stomach, Hs738 had been cultured, followed by further coculturing at 37° C. and 5% CO2 for 3 days.
as §19, §20

In brackets after ≈: the same amount, converted by molar mass. Read-outs that look alike come from different tables or passages of the source.

Consider `CC1(C)S[C@@H]2[C@H](NC(=O)[C@H](N)c3ccccc3)C(=O)N2[C@H]1C(=O)O` [ABPC, ampicillin, reference compound], for which the MIC in data set [1] is less than 0.125 µg/mL; in [2], 0.13 µg/mL (≈ 0.372 µM); in data set [3] it was 0.5 µg/mL (≈ 1.43 µM); in [4] it was 0.5 µg/mL (≈ 1.43 µM); in data set [5] it was 64 µg/mL (≈ 183 µM); in data set [6] it was 0.25 µg/mL (≈ 0.715 µM). Moreover, the MIC in [7] is 4 µg/mL (≈ 11.4 µM).
Regarding `CC[C@H]1OC(=O)[C@H](C)[C@@H](O[C@H]2C[C@@](C)(OC)[C@@H](O)[C@H](C)O2)[C@H](C)[C@@H](O[C@@H]2O[C@H](C)C[C@H](N(C)C)[C@H]2O)[C@](C)(OC)C[C@@H](C)C(=O)[C@H](C)[C@@H](O)[C@]1(C)O` [Clarithromycin, clarithromycin, reference compound], the MIC in data set [1] was less than 0.125 µg/mL; in data set [2], 0.008 µg/mL (≈ 0.0107 µM); in data set [3] it was 0.5 µg/mL (≈ 0.668 µM); in [4] it was 8 µg/mL (≈ 10.7 µM); in data set [5], 4 µg/mL (≈ 5.35 µM); in [6], 0.008 µg/mL (≈ 0.0107 µM). The MIC in data set [7] turned out to be 16 µg/mL (≈ 21.4 µM).
For the compound `CCCCCCCCc1nc2ccccc2c(OCC(=O)OC)c1C` [Structural Formula (1)], the IC50 in data set [8] is 28.1 µg/mL; in data set [10], 0.35 µg/mL. In addition, the maximal tolerated dose (MTD) at 2 weeks in [9] (MTD) was no less than 50 mg/kg.
For `CCCCCCCCc1c(C)c(=O)c2ccccc2n1C#N` [Structural Formula (7)], the IC50 is greater than 100 µg/mL in data set [8] and 0.007 µg/mL in [10]. In data set [9] (MTD), this compound showed an MTD at 2 weeks of 6.25 mg/kg.
As for `CCCCCCCCc1c(C)c(=O)c2ccccc2n1CC(=O)SC` [Structural Formula (9)], the 50% inhibitory concentration (IC50) was determined as 5.84 µg/mL in [8] and 1.4 µg/mL in data set [10]. The compound further came in with an MTD at 2 weeks in [9] (MTD) of no less than 50 mg/kg.
With `CCCCCCCCc1c(C)c(=O)c2ccccc2n1CNC(=O)SC` [Structural Formula (10)], the half-inhibitory concentration (IC50) stood at 7.57 µg/mL in data set [8] and 0.27 µg/mL in data set [10]. Besides, the maximal tolerated dose (MTD) at 2 weeks in [9] (intravenous administration, ICR mice, observed for 2 weeks, one half of the dose with death or serious toxicity, read-out: MTD) is no less than 50 mg/kg.
